The results in this text go back to patent US10143731B2, “Peptides and combination of peptides for use in immunotherapy against various cancers” (immatics biotechnologies GmbH, priority 2015, dated 2018).

Experiment [1] deals with HLA-A*02. As to the kind of experiment: MHC binding assay by UV-ligand exchange and beta2m ELISA, HLA-A*02. More on the design: species or system human. The following applies: binding to HLA-A*02 ranged by peptide exchange yield (UV-ligand exchange, β2m ELISA). From the text: (§1) MHC Binding Assays Candidate peptides for T cell based therapies according to the present invention were further tested for their MHC binding capacity (affinity). The individual peptide-MHC complexes were produced by UV-ligand exchange, where a UV-sensitive peptide is cleaved upon UV-irradiation, and exchanged with the peptide of interest as analyzed. Only peptide candidates that can effectively bind and stabilize the peptide-receptive MHC molecules prevent dissociation of the MHC complexes. To determine the yield of the exchange reaction, an ELISA was performed based on the detection of the light chain (β2m) of stabilized MHC complexes. The assay was performed as generally described in Rodenko et al. (Rodenko et al., 2006).
(§2) 96 well MAXISorp plates (NUNC) were coated over night with 2 ug/ml streptavidin in PBS at room temperature, washed 4× and blocked for 1 h at 37° C. in 2% BSA containing blocking buffer. Refolded HLA-A*02:01/MLA-001 monomers served as standards, covering the range of 15-500 ng/ml. Peptide-MHC monomers of the UV-exchange reaction were diluted 100 fold in blocking buffer. Samples were incubated for 1 h at 37° C., washed four times, incubated with 2 ug/ml HRP conjugated anti-β2m for 1 h at 37° C., washed again and detected with TMB solution that is stopped with […]. Absorption was measured at 450 nm. Candidate peptides that show a high exchange yield (preferably higher than 50%, most preferred higher than 75%) are generally preferred for a generation and production of antibodies or fragments thereof, and/or T cell receptors or fragments thereof, as they show sufficient avidity to the MHC molecules and prevent dissociation of the MHC complexes.
For orientation: In an ELISA, binding on a coated surface is turned into a signal by an enzyme label.

Experiment [2] relates to CD8+ T cells. Nature of the experiment: In vitro T-cell priming assay (aAPCs loaded with peptide/MHC and anti-CD28, multimer staining readout). The note with it: for Wells positive [%]: in vitro immunogenicity of HLA class I peptides; for Wells (in vitro immunogenicity of HLA class I peptides): CD8+ T cells of healthy donors, three stimulation cycles with peptide/MHC and anti-CD28 coated beads. Format: cell-based, human. As for the experimental part: In an aspect, the peptides are pre-screened for immunogenicity before being included in the warehouse. By way of example, and not limitation, the immunogenicity of the peptides included in the warehouse is determined by a method comprising in vitro T-cell priming through repeated stimulations of CD8+ T cells from healthy donors with artificial antigen presenting cells loaded with peptide/MHC complexes and anti-CD28 antibody.
In order to obtain information regarding the immunogenicity of the TUMAPs of the present invention, the inventors performed investigations using an in vitro T-cell priming assay based on repeated stimulations of CD8+ T cells with artificial antigen presenting cells (aAPCs) loaded with peptide/MHC complexes and anti-CD28 antibody.
In order to perform in vitro stimulations by artificial antigen presenting cells loaded with peptide-MHC complex (pMHC) and anti-CD28 antibody, the inventors first isolated CD8+ T cells from fresh HLA-A*02 leukapheresis products via positive selection using CD8 microbeads (Miltenyi Biotec, Bergisch-Gladbach, Germany) of healthy donors obtained from the University clinics Mannheim, Germany, after informed consent.
PBMCs and isolated CD8+ lymphocytes were incubated in T-cell medium (TCM) until use consisting of RPMI-Glutamax (Invitrogen, Karlsruhe, Germany) supplemented with 10% heat inactivated human AB serum (PAN-Biotech, Aidenbach, Germany), 100 U/ml Penicillin/100 μg/ml Streptomycin (Cambrex, Cologne, Germany), 1 mM sodium pyruvate (CC Pro, Oberdorla, Germany), 20 μg/ml Gentamycin (Cambrex). 2.5 ng/ml IL7 (PromoCell, Heidelberg, Germany) and 10 U/ml IL-2 (Novartis Pharma, Nürnberg, Germany) were also added to the TCM at this step.
Generation of pMHC/anti-CD28 coated beads, T-cell stimulations and readout was performed in a highly defined in vitro system using four different pMHC molecules per stimulation condition and 8 different pMHC molecules per readout condition.
The purified co-stimulatory mouse IgG2a anti human CD28 Ab 9.3 (Jung et al., 1987) was chemically biotinylated using Sulfo-N-hydroxysuccinimidobiotin as recommended by the manufacturer (Perbio, Bonn, Germany). Beads used were 5.6 μm diameter streptavidin coated polystyrene particles (Bangs Laboratories, Illinois, USA).
pMHC used for positive and negative control stimulations were A*0201/MLA-001 (peptide […] (SEQ ID NO. 303) from modified Melan-A/MART-1) and A*0201/DDX5-001 ([…] from DDX5, SEQ ID NO. 304), respectively.
800.000 beads/200 μl were coated in 96-well plates in the presence of 4×12.5 ng different biotin-pMHC, washed and 600 ng biotin anti-CD28 were added subsequently in a volume of 200 μl. Stimulations were initiated in 96-well plates by co-incubating 1×10^6 CD8+ T cells with 2×10^5 washed coated beads in 200 μl TCM supplemented with 5 ng/ml IL-12 (PromoCell) for 3 days at 37° C. Half of the medium was then exchanged by fresh TCM supplemented with 80 U/ml IL-2 and incubating was continued for 4 days at 37° C. This stimulation cycle was performed for a total of three times. For the pMHC multimer readout using 8 different pMHC molecules per condition, a two-dimensional combinatorial coding approach was used as previously described (Andersen et al., 2012) with minor modifications encompassing coupling to 5 different fluorochromes. Finally, multimeric analyses were performed by staining the cells with Live/dead near IR dye (Invitrogen, Karlsruhe, Germany), CD8-FITC antibody clone SK1 (BD, Heidelberg, Germany) and fluorescent pMHC multimers. For analysis, a BD LSRII SORP cytometer equipped with appropriate lasers and filters was used. Peptide specific cells were calculated as percentage of total CD8+ cells. Evaluation of multimeric analysis was done using the FlowJo software (Tree Star, Oregon, USA). In vitro priming of specific multimer+CD8+ lymphocytes was detected by comparing to negative control stimulations.

In experiment [3] the test system is HLA-A*24. As to the kind of experiment: MHC binding assay by UV-ligand exchange and beta2m ELISA, HLA-A*24. The arrangement: species or system human. The note with it: binding to HLA-A*24 ranged by peptide exchange yield (UV-ligand exchange, β2m ELISA).
Description: as §1, §2

As for “153 (FISERVEVV; listed as Homo sapiens) [compound 153]”, in experiment [1], the Peptide exchange result was “++++ (> = 75% = ++++)”.
On the same count and under the same terms, the entry for “3 (KLEENGDLYL; listed as Homo sapiens) [compound 3]” is “++++ (> = 75% = ++++)”.
Take “204 (TYELRYFQI; listed as Homo sapiens) [compound 204]”: the “Wells positive [%]” value in experiment [2] was “+ (<20% = +)”. In experiment [3], the Peptide exchange entry was “++++ (> = 75% = ++++)”.
As to “125 (SLADYEHFV; listed as Homo sapiens) [compound 125]”, the Peptide exchange result in experiment [1] is recorded as “++++ (> = 75% = ++++)”.
In the case of “167 (NYINRILKL; listed as Homo sapiens) [compound 167]”, the “Wells positive [%]” value in experiment [2] is given as “+ (<20% = +)”. Moreover, in experiment [3], the Peptide exchange result is listed as “++++ (> = 75% = ++++)”.
With “16 (YTLDIPVLFGV; listed as Homo sapiens) [compound 16]”, the Peptide exchange result in experiment [1] is given as “++++ (> = 75% = ++++)”.
In the case of “245 (SLLDLPLSL; listed as Homo sapiens) [compound 245]”, the Peptide exchange result in experiment [1] is reported as “++++ (> = 75% = ++++)”.
As for “163 (DYLKGLASF; listed as Homo sapiens) [compound 163]”, in experiment [2], the “Wells positive [%]” value is “+ (<20% = +)”. In addition, the Peptide exchange result in experiment [3] is on record as “++++ (> = 75% = ++++)”.
“95 (GLLGSLFFL; listed as Homo sapiens) [compound 95]”: the Peptide exchange result in experiment [1] was “++++ (> = 75% = ++++)”.
Take “4 (KLMPGTYTL; listed as Homo sapiens) [compound 4]”: in experiment [2], the “Wells positive [%]” value is recorded as “+ (<20% = +)”. The Peptide exchange entry in experiment [1] was “++++ (> = 75% = ++++)”.
For “159 (LYNKGFIYL; listed as Homo sapiens) [compound 159]”, the “Wells positive [%]” value in experiment [2] is recorded as “++++ (> = 70% = ++++)”. In experiment [3], the Peptide exchange entry is reported as “++++ (> = 75% = ++++)”.
Regarding “249 (GLCERLVSL; listed as Homo sapiens) [compound 249]”, in experiment [2], the “Wells positive [%]” value is “+ (<20% = +)”. The Peptide exchange entry in experiment [1] is on record as “++++ (> = 75% = ++++)”.
As for “258 (LLSERFINV; listed as Homo sapiens) [compound 258]”, the Peptide exchange entry in experiment [1] was “++++ (> = 75% = ++++)”.
Same read-out and setting: as for “34 (FLLATEVVTV; listed as Homo sapiens) [compound 34]”, the entry is “++++ (> = 75% = ++++)”; as for “129 (RLQDILWFL; listed as Homo sapiens) [compound 129]”, “++++ (> = 75% = ++++)”.
Take “112 (SLGKFTFDV; listed as Homo sapiens) [compound 112]”: the Peptide exchange entry in experiment [1] is “++++ (> = 75% = ++++)”.
On to “18 (ILLDLTDNRL; listed as Homo sapiens) [compound 18]”, for which the “Wells positive [%]” value in experiment [2] is listed as “+ (<20% = +)”.
Regarding “51 (LLFSRLCGA; listed as Homo sapiens) [compound 51]”, in experiment [1], the Peptide exchange result is listed as “++++ (> = 75% = ++++)”.
Regarding “248 (YLDRFLAGV; listed as Homo sapiens) [compound 248]”, the Peptide exchange entry in experiment [1] is listed as “++++ (> = 75% = ++++)”.
Consider “269 (YFIDSTNLKTHF; listed as Homo sapiens) [compound 269]”, for which the “Wells positive [%]” value in experiment [2] is “+ (<20% = +)”.
Regarding “293 (FLVDGSWSI; listed as Homo sapiens) [compound 293]”, in experiment [2], the “Wells (in vitro immunogenicity of HLA class I peptides)” value is recorded as “+ (<20% = +)”.
“158 (HYSQELSLLYL; listed as Homo sapiens) [compound 158]”: the “Wells positive [%]” value in experiment [2] was “+ (<20% = +)”. Moreover, in experiment [3], the Peptide exchange result is reported as “++++ (> = 75% = ++++)”.
In the case of “268 (QYLGQIQHI; listed as Homo sapiens) [compound 268]”, the “Wells positive [%]” value in experiment [2] was “+ (<20% = +)”.
For the substance “84 (ALCPRIHEV; listed as Homo sapiens) [compound 84]”, the Peptide exchange entry in experiment [1] is “++++ (> = 75% = ++++)”.
“1 (LLYPEPWSV; listed as Homo sapiens) [compound 1]”: in experiment [1], the Peptide exchange entry is recorded as “++++ (> = 75% = ++++)”.
Regarding “92 (GLLFSLRSV; listed as Homo sapiens) [compound 92]”, the Peptide exchange result in experiment [1] was “++++ (> = 75% = ++++)”.
As for “149 (ILNTHITEL; listed as Homo sapiens) [compound 149]”, the “Wells positive [%]” value in experiment [2] is “+ (<20% = +)”.
On to “147 (YLMDDTVEI; listed as Homo sapiens) [compound 147]”, for which, in experiment [1], the Peptide exchange entry is given as “++++ (> = 75% = ++++)”.
For “301 (AYKPGALTF; listed as Homo sapiens) [compound 301]”, the “Wells (in vitro immunogenicity of HLA class I peptides)” value in experiment [2] is on record as “+ (<20% = +)”.
In the case of “229 (AILAHLNTV; listed as Homo sapiens) [compound 229]”, in experiment [1], the Peptide exchange entry is listed as “++++ (> = 75% = ++++)”.
With “196 (LYIDRPLPYL; listed as Homo sapiens) [compound 196]”, in experiment [2], the “Wells positive [%]” value was “++++ (> = 70% = ++++)”.
“218 (YYKSTSSAF; listed as Homo sapiens) [compound 218]”: in experiment [2], the “Wells positive [%]” value is “+ (<20% = +)”.
In the case of “126 (QMFQYFITV; listed as Homo sapiens) [compound 126]”, the Peptide exchange entry in experiment [1] is reported as “++++ (> = 75% = ++++)”.
For the substance “23 (SLFSDEFKV; listed as Homo sapiens) [compound 23]”, the “Wells positive [%]” value in experiment [2] was “++++ (> = 70% = ++++)”.
As to “298 (RYLEGTSCI; listed as Homo sapiens) [compound 298]”, the “Wells (in vitro immunogenicity of HLA class I peptides)” value in experiment [2] is on record as “+ (<20% = +)”.
As to “257 (GLYTDPCGV; listed as Homo sapiens) [compound 257]”, the Peptide exchange result in experiment [1] is recorded as “++++ (> = 75% = ++++)”.
Turning to “230 (KLQNIMMLL; listed as Homo sapiens) [compound 230]”, the “Wells positive [%]” value in experiment [2] is listed as “++++ (> = 70% = ++++)”.
For “165 (DYTTWTALL; listed as Homo sapiens) [compound 165]”, the “Wells positive [%]” value in experiment [2] was “+ (<20% = +)”. Moreover, the Peptide exchange entry in experiment [3] is reported as “++++ (> = 75% = ++++)”.
For “133 (ALLPRLHQL; listed as Homo sapiens) [compound 133]”, the Peptide exchange entry in experiment [1] was “++++ (> = 75% = ++++)”.
In the case of “14 (ILAKDLFEI; listed as Homo sapiens) [compound 14]”, in experiment [1], the Peptide exchange entry is given as “++++ (> = 75% = ++++)”.
On to “291 (KLDETGNSL; listed as Homo sapiens) [compound 291]”, for which, in experiment [2], the “Wells (in vitro immunogenicity of HLA class I peptides)” value is on record as “+ (<20% = +)”.
